Source: patent US20260042769A1, “TRIARYL AGONISTS OF ALPHA-2 ADRENERGIC RECEPTORS” (ALCEPTOR THERAPEUTICS, INC., priority 2023, published 2026)

The compounds below were run against T1, human ADRA2B receptor (Homo sapiens, UniProt P18089) (assay: GTPγS agonist assay, ADRA2B receptor). Conditions: read-out: GTPase - Human Alpha2B EC50.
T1 construct: expressed in transfected cells
T1 sequence (P18089 1-450): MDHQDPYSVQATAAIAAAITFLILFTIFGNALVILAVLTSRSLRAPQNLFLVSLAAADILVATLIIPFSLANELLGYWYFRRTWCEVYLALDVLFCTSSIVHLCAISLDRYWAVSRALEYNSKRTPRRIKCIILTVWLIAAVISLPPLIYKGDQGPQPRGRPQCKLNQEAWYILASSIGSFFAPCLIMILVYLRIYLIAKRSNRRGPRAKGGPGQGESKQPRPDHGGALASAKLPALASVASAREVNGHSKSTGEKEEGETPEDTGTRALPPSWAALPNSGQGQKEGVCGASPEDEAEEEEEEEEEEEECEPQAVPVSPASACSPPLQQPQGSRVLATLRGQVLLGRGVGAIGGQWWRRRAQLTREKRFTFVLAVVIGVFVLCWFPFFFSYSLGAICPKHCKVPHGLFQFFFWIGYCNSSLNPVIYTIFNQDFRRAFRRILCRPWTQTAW
Assay type: biochemical
Procedure, shortened: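 CHO-K1 membranes stably expressing human ADRA2B (5 μg protein) in 20 mM HEPES, 10 mM MgCl2, 200 mM NaCl with GDP, preincubated 10 min at room temperature with compound. Binding reaction 1 h at 37° C; bound label collected on GF/C filters, washed, read by scintillation counting.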

| Structure (SMILES) | EC50 [nM] |
| --- | --- |
| Cc1cnc(C[C@@H](c2cnc[nH]2)c2cccc(C)c2C)nc1 [Compound 75, 2-[(2R)-2-(2,3-dimethylphenyl)-2-(1H-imidazol-4-yl)ethyl]-5-methylpyrimidine] | 50 to 500 |
| Cc1ccnc(C[C@@H](c2cnc[nH]2)c2cccc(C)c2C)n1 [Compound 79, 2-[(2R)-2-(2,3-dimethylphenyl)-2-(1H-imidazol-4-yl)ethyl]-4-methylpyrimidine] | 50 to 500 |
| FC(F)(F)c1ccc(C(Cc2cccnn2)c2c[nH]cn2)c(Cl)c1 (centres unmarked) [Compound 201, 3-{2-[2-chloro-4-(trifluoromethyl)phenyl]-2-(4-imidazolyl)ethyl} pyridazine] | > 500 |
| COc1c(C)cccc1[C@H](Cc1ccccn1)c1cnc[nH]1 [Compound 33, 2-[(2S)-2-(1H-imidazol-4-yl)-2-(2-methoxy-3-methylphenyl)ethyl]pyridine] | > 500 |
| FC(F)(F)Oc1cccc([C@@H](Cc2ccccn2)c2cnc[nH]2)c1 [Compound 36, 2-[(2R)-2-(1H-imidazol-4-yl)-2-[3-(trifluoromethoxy)phenyl]ethyl] pyridine] | 10 to 50 |
| Cc1cccc(C(Cc2c(C)noc2C)c2c[nH]cn2)c1C (centres unmarked) [Compound 113, 4-[2-(4-imidazolyl)-2-(2,3-xylyl)ethyl]-3,5-dimethyl-isoxazole] | 50 to 500 |
| Cc1cccc(C(Cc2ccc(=O)[nH]n2)c2c[nH]cn2)c1C (centres unmarked) [Compound 86, 6-[2-(2,3-dimethylphenyl)-2-(1H-imidazol-4-yl)ethyl]-2,3-dihydropyridazin-3-one] | < 10 |
| Cc1cccc([C@H](Cc2cccnc2)c2cnc[nH]2)c1Cl [Compound 60, 3-[(2S)-2-(2-chloro-3-methylphenyl)-2-(1H-imidazol-4-yl)ethyl] pyridine] | < 10 |
| Cc1cccc([C@@H](Cc2ccon2)c2c[nH]cn2)c1C [Compound 100, 3-[(R)-2-(4-imidazolyl)-2-(2,3-xylyl)ethyl] isoxazole] | 10 to 50 |
| Cc1cccc(C(Cc2cnco2)c2c[nH]cn2)c1C (centres unmarked) [Compound 134, 5-[2-(4-imidazolyl)-2-(2,3-xylyl)ethyl]-1,3-oxazole] | < 10 |
| COc1nccc(CC(c2ccc(Cl)cc2)c2c[nH]cn2)n1 (centres unmarked) [Compound 159, 4-[2-(p-chlorophenyl)-2-(4-imidazolyl)ethyl]-2-methoxypyrimidine] | 50 to 500 |
| COc1nccc(C[C@@H](c2cnc[nH]2)c2cccc(C)c2C)n1 [Compound 54, 4-[(2R)-2-(2,3-dimethylphenyl)-2-(1H-imidazol-4-yl)ethyl]-2-methoxy-pyrimidine] | 50 to 500 |
| Cc1cccc([C@H](Cc2ccon2)c2c[nH]cn2)c1C [Compound 101, 3-[(S)-2-(4-imidazolyl)-2-(2,3-xylyl)ethyl] isoxazole] | 50 to 500 |
| Cc1cccc(C(Cc2cc(C(F)(F)F)nn2C)c2c[nH]cn2)c1C (centres unmarked) [Compound 310, 5-[2-(4-imidazolyl)-2-(2,3-xylyl)ethyl]-1-methyl-3-(trifluoromethyl)pyrazole] | < 10 |
| c1cc2c(c([C@@H](Cc3cnn(C4CC4)c3)c3c[nH]cn3)c1)OCC2 [Compound 289] | > 500 |
| Cc1cccc([C@H](Cc2cncs2)c2c[nH]cn2)c1C [Compound 129, 5-[(S)-2-(4-imidazolyl)-2-(2,3-xylyl)ethyl]-1,3-thiazole] | < 10 |
| c1cncc(CC(c2cnc[nH]2)c2cccc3c2CCO3)c1 (centres unmarked) [Compound 57, 3-[2-(2,3-dihydro-1-benzofuran-4-yl)-2-(1H-imidazol-4-yl)ethyl] pyridine] | > 500 |
| FC1(F)Oc2cccc(C(Cc3ccccn3)c3c[nH]cn3)c2O1 (centres unmarked) [Compound 115, 2,2-difluoro-4-[1-(4-imidazolyl)-2-(2-pyridyl)ethyl]-2H-1,3-benzodioxole] | 50 to 500 |
| FC(F)(F)Oc1ccc(C(Cc2cccnn2)c2c[nH]cn2)cc1 (centres unmarked) [Compound 220, 3-[2-(4-imidazolyl)-2-(p-trifluoromethoxyphenyl)ethyl]pyridazine] | > 500 |
| Cc1nc(C)c(C[C@@H](c2c[nH]cn2)c2cccc(C)c2C)s1 [Compound 123, 5-[(R)-2-(4-imidazolyl)-2-(2,3-xylyl)ethyl]-2,4-dimethyl-1,3-thiazole] | < 10 |
| FC(F)(F)Oc1ccccc1[C@@H](Cc1ccccn1)c1cnc[nH]1 [Compound 30, 2-[(2R)-2-(1H-imidazol-4-yl)-2-[2-(trifluoromethoxy)phenyl]ethyl] pyridine] | > 500 |

Now from value to compound:

| EC50 [nM] | Structure (SMILES) |
| --- | --- |
| 50 to 500 | COc1cccc(C[C@H](c2cnc[nH]2)c2cccc(OC)c2C)n1 [Compound 26, 2-[(2S)-2-(1H-imidazol-4-yl)-2-(3-methoxy-2-methylphenyl)ethyl]-6-methoxypyridine] |
| < 10 | COc1cc(CC(c2c[nH]cn2)c2cccc3c2OCC3)nc(OC)n1 (centres unmarked) [Compound 335, 4-(2-(2,3-dihydrobenzofuran-7-yl)-2-(1H-imidazol-4-yl)ethyl)-2,6-dimethoxypyrimidine] |
| 10 to 50 | Cc1cccc([C@H](Cc2ccn(C)n2)c2c[nH]cn2)c1C [Compound 106, 3-[(S)-2-(4-imidazolyl)-2-(2,3-xylyl)ethyl]-1-methylpyrazole] |
| < 10 | COc1cccc(C[C@H](c2c[nH]cn2)c2cccc(C)c2F)n1 (single isomer, unassigned) [Compound 5] |
| 50 to 500 | COc1cccc(C[C@@H](c2cnc[nH]2)c2cccc3c2OCC3)n1 [Compound 17, 2-[(2R)-2-(2,3-dihydro-1-benzofuran-7-yl)-2-(1H-imidazol-4-yl)ethyl]-6-methoxypyridine] |
| < 10 | COc1cccc(C[C@H](c2cnc[nH]2)c2cccc3c2COC3)n1 [Compound 11, 2-[(2S)-2-(1,3-dihydro-2-benzofuran-4-yl)-2-(1H-imidazol-4-yl)ethyl]-6-methoxypyridine] |
| 50 to 500 | Clc1cccc(C(Cc2cccnn2)c2c[nH]cn2)c1Cl (centres unmarked) [Compound 170, 3-[2-(2,3-dichlorophenyl)-2-(4-imidazolyl)ethyl] pyridazine] |
| < 10 | COc1cccc(C[C@H](c2c[nH]cn2)c2cccc3c2OCC3)n1 [Compound 16, 2-[(2S)-2-(2,3-dihydro-1-benzofuran-7-yl)-2-(1H-imidazol-4-yl)ethyl]-6-methoxypyridine] |
| < 10 | COc1cccc(CC(c2cnc[nH]2)c2cccc(OC)c2Cl)n1 (centres unmarked) [Compound 20, 2-[2-(2-chloro-3-methoxyphenyl)-2-(1H-imidazol-4-yl)ethyl]-6-methoxypyridine] |
| 10 to 50 | COc1cccc(C(Cc2ccnc(C)n2)c2c[nH]cn2)c1C (centres unmarked) [Compound 149, 4-[2-(4-imidazolyl)-2-(3-methoxy-2-tolyl)ethyl]-2-methylpyrimidine] |
| < 10 | Cc1cc(CC(c2c[nH]cn2)c2cccc(C)c2C)no1 (centres unmarked) [Compound 114, 3-[2-(4-imidazolyl)-2-(2,3-xylyl)ethyl]-5-methyl-isoxazole] |
| < 10 | COc1nccc(CC(c2c[nH]cn2)c2cccc(Cl)c2C)n1 (centres unmarked) [Compound 185, 4-[2-(3-chloro-2-tolyl)-2-(4-imidazolyl)ethyl]-2-methoxypyrimidine] |
| < 10 | Cc1cccc([C@@H](Cc2ccnn2C)c2c[nH]cn2)c1C [Compound 130, 5-[(R)-2-(4-imidazolyl)-2-(2,3-xylyl)ethyl]-1-methyl-pyrazole] |
| > 500 | COc1cccc(C[C@H](c2c[nH]cn2)c2cccc3c2CCO3)n1 [Compound 18, 2-[(2S)-2-(2,3-dihydro-1-benzofuran-4-yl)-2-(1H-imidazol-4-yl)ethyl]-6-methoxypyridine] |
| 10 to 50 | COc1cccc(C[C@@H](c2cccc(Cl)c2)c2cnc[nH]2)n1 [Compound 21, 2-[(2S)-2-(3-chlorophenyl)-2-(1H-imidazol-4-yl)ethyl]-6-methoxypyridine] |
| < 10 | COc1cccc(C[C@@H](c2cccc(C)c2)c2cnc[nH]2)n1 [Compound 23, 2-[(2S)-2-(1H-imidazol-4-yl)-2-(3-methylphenyl)ethyl]-6-methoxypyridine] |
| 50 to 500 | COc1nccc(CC(c2c[nH]cn2)c2cc(Cl)ccc2C)n1 (centres unmarked) [Compound 184, 4-[2-(5-chloro-2-tolyl)-2-(4-imidazolyl)ethyl]-2-methoxypyrimidine] |
| > 500 | Cc1cccc([C@H](Cc2cccnn2)c2c[nH]cn2)c1F [Compound 138, 3-[(S)-2-(2-fluoro-3-tolyl)-2-(4-imidazolyl)ethyl] pyridazine] |
| > 500 | Fc1c(Cl)cccc1C(Cc1cccnn1)c1c[nH]cn1 (centres unmarked) [Compound 219, 3-[2-(3-chloro-2-fluorophenyl)-2-(4-imidazolyl)ethyl] pyridazine] |
| > 500 | CCOc1c(F)cccc1C(Cc1cccnn1)c1c[nH]cn1 (centres unmarked) [Compound 231, 3-[2-(2-ethoxy-3-fluorophenyl)-2-(4-imidazolyl)ethyl] pyridazine] |
| > 500 | COc1c(Cl)cccc1C(Cc1cccnn1)c1c[nH]cn1 (centres unmarked) [Compound 160, 3-[2-(3-chloro-2-methoxyphenyl)-2-(4-imidazolyl)ethyl] pyridazine] |
| 10 to 50 | COc1nccc(CC(c2c[nH]cn2)c2cccc(Cl)c2OC)n1 (centres unmarked) [Compound 198, 4-[2-(3-chloro-2-methoxyphenyl)-2-(4-imidazolyl)ethyl]-2-methoxypyrimidine] |
| < 10 | COc1cccc(C[C@@H](c2c[nH]cn2)c2cccc(Cl)c2Cl)n1 [Compound 98, 4-[(R)-1-(2,3-dichlorophenyl)-2-(6-methoxy-2-pyridyl)ethyl] imidazole] |
